Data: PMC6151525, “Investigation of the N-Terminus Amino Function of Arg10-Teixobactin” (Molecules : A Journal of Synthetic Chemistry and Natural …, 2017)
Like-named read-outs stand apart in the source and are kept apart here.

What was measured:
[1] = format: physicochemical
Procedure: The most hydrophobic analogs, 5, 6, and 8, presented several difficulties regarding purification. […] Nevertheless, by washing the solid obtained several times with 30% acetonitrile in water, impurities from the cyclization were removed, as were the protecting groups, and the decanoyl derivative was obtained in good purity (Figure S11). The mixture of compounds 5 and 6 was also a challenge with respect to solubilization. In this case, the addition first of 100 μL of TFA and then 7 mL of acetonitrile, followed by sonication for 15 min, yielded a clear solution. Then, 3 mL of water was added slowly and no precipitation of the compounds was observed. This solution was injected into the semi-preparative HPLC, and the two analogs were separated efficiently.
After the purification and characterization of the new analogs by MALDI-TOF, their antimicrobial activity was tested against two gram-positive bacteria strains, Staphylococcus aureus and Bacillo subtilis, as well as two gram-negative strains, namely Escherichia coli and Pseudomonas aeruginosa (Table 1). […] They were then diluted to reach 512 μg/mL, the highest concentration tested, followed by two-fold serial dilution.

[2] = test system: Bacillus subtilis ATCC 6051; format: cell-based; conditions: ATCC 6051, 24 h
Procedure: (§1) After the purification and characterization of the new analogs by MALDI-TOF, their antimicrobial activity was tested against two gram-positive bacteria strains, Staphylococcus aureus and Bacillo subtilis, as well as two gram-negative strains, namely Escherichia coli and Pseudomonas aeruginosa (Table 1). […] They were then diluted to reach 512 μg/mL, the highest concentration tested, followed by two-fold serial dilution. […] The MIC was determined using the broth micro dilution method, as described by the Clinical and Laboratory Standards Institute (CLSI) guidelines, using two gram-positive and two gram-negative bacteria strains (Staphylococcus aureus ATCC 29213, Bacillus subtilis ATCC 6051, Escherichia coli ATCC 25922, Pseudomonas aeruginosa ATCC 27853). First, the bacterial strains were sub-cultured onto Mueller Hinton agar and incubated at 37 °C for 24 h before use in the experiments. Stock solutions at 6 mg/mL in 10% DMSO were prepared for analogs 1–4 and 60% DMSO for analogs 5, 6, and 8. Second, two-fold serial dilutions of each drug/compound were made in cation-adjusted Mueller Hinton broth (CAMHB) in a 96-well microtiter plate. The bacterial inoculum was prepared in distilled water, matched to a 0.5 McFarland standard, and added to make a final volume of 200 µL in each microliter well. The plates were incubated for 24 h at 37 °C under aerobic conditions. The MIC was then recorded as the lowest concentration at which no visible growth occurred. Standard drug, media, and bacterial growth control wells were included in each plate. […] The assay was performed in triplicate to confirm the results.

[3] = test system: Pseudomonas aeruginosa ATCC 27853; conditions: Gram−; natural teixobactin, reference line of Table 1; cited from earlier work
Excerpt: Table 1 Minimum Inhibitory Concentration (MIC) (µg/mL) for teixobactin analogs (1–6, 8–10). | column: Gram− / P. aerug ATCC 27853

[4] = test system: Staphylococcus aureus ATCC 29213; conditions: Gram+; natural teixobactin, reference line of Table 1; cited from earlier work
Excerpt: Table 1 Minimum Inhibitory Concentration (MIC) (µg/mL) for teixobactin analogs (1–6, 8–10). | column: Gram+ / S. aureus ATCC 29213

[5] = test system: Escherichia coli ATCC 25922; conditions: Gram−; natural teixobactin, reference line of Table 1; cited from earlier work
Excerpt: Table 1 Minimum Inhibitory Concentration (MIC) (µg/mL) for teixobactin analogs (1–6, 8–10). | column: Gram− / E. coli ATCC 25922

[6] = test system: Bacillus subtilis ATCC 6051; conditions: Gram+; natural teixobactin, reference line of Table 1; cited from earlier work
Excerpt: Table 1 Minimum Inhibitory Concentration (MIC) (µg/mL) for teixobactin analogs (1–6, 8–10). | column: Gram+ / B. subtilis ATCC 6051

[7] = test system: Escherichia coli ATCC 25922; format: cell-based; conditions: ATCC 25922, 24 h
Procedure: as §1

[8] = test system: Staphylococcus aureus ATCC 29213; format: cell-based; conditions: ATCC 29213, 24 h
Procedure: as §1

[9] = test system: Pseudomonas aeruginosa ATCC 27853; test: MIC, broth microdilution (CLSI); format: cell-based; conditions: Gram−, CAMHB, 24 h at 37 °C, two-fold dilutions from 512 µg/mL, triplicate
Procedure: After the purification and characterization of the new analogs by MALDI-TOF, their antimicrobial activity was tested against two gram-positive bacteria strains, Staphylococcus aureus and Bacillo subtilis, as well as two gram-negative strains, namely Escherichia coli and Pseudomonas aeruginosa (Table 1). […] They were then diluted to reach 512 μg/mL, the highest concentration tested, followed by two-fold serial dilution. […] The MIC was determined using the broth micro dilution method, as described by the Clinical and Laboratory Standards Institute (CLSI) guidelines, using two gram-positive and two gram-negative bacteria strains (Staphylococcus aureus ATCC 29213, Bacillus subtilis ATCC 6051, Escherichia coli ATCC 25922, Pseudomonas aeruginosa ATCC 27853). First, the bacterial strains were sub-cultured onto Mueller Hinton agar and incubated at 37 °C for 24 h before use in the experiments. Stock solutions at 6 mg/mL in 10% DMSO were prepared for analogs 1–4 and 60% DMSO for analogs 5, 6, and 8. Second, two-fold serial dilutions of each drug/compound were made in cation-adjusted Mueller Hinton broth (CAMHB) in a 96-well microtiter plate. The bacterial inoculum was prepared in distilled water, matched to a 0.5 McFarland standard, and added to make a final volume of 200 µL in each microliter well. […] The MIC was then recorded as the lowest concentration at which no visible growth occurred. […]

Row | Compound | solubility in water [1] | Minimum Inhibitory Concentration (MIC) B. subtilis ATCC 6051 [2] [µg/mL] | Minimum Inhibitory Concentration (MIC) E. coli ATCC 25922 [7] [µg/mL] | Minimum Inhibitory Concentration (MIC) S. aureus ATCC 29213 [8] [µg/mL] | further results
1 | CCCCCCCCCCN(CCCCCCCCCC)[C@H](Cc1ccccc1)C(=O)N[C@H](C(=O)N[C@@H](CO)C(=O)N[C@H](CCC(N)=O)C(=O)N[C@@H](C(=O)N[C@H](C(=O)N[C@@H](CO)C(=O)N[C@H]1C(=O)N[C@@H](C)C(=O)N[C@@H](CCCNC(=N)N)C(=O)N[C@@H]([C@@H](C)CC)C(=O)O[C@H]1C)[C@@H](C)CC)[C@@H](C)CC)[C@@H](C)CC [compound 6, N-De2-D-Phe-Arg10-teixobactin] | poor solubility in water | 128 | – | – | –
2 | Teixobactin | – | – | – | – | Minimum Inhibitory Concentration (MIC) P. aerug ATCC 27853 [3]: >32 µg/mL; Minimum Inhibitory Concentration (MIC) S. aureus ATCC 29213 [4]: 0.25 µg/mL; Minimum Inhibitory Concentration (MIC) E. coli ATCC 25922 [5]: 25 µg/mL; Minimum Inhibitory Concentration (MIC) B. subtilis ATCC 6051 [6]: 0.06 µg/mL
3 | CC[C@H](C)[C@H](NC(=O)[C@H](N)Cc1ccccc1)C(=O)N[C@@H](CO)C(=O)N[C@H](CCC(N)=O)C(=O)N[C@@H](C(=O)N[C@H](C(=O)N[C@@H](CO)C(=O)N[C@H]1C(=O)N[C@@H](C)C(=O)N[C@@H](CCCNC(=N)N)C(=O)N[C@@H]([C@@H](C)CC)C(=O)O[C@H]1C)[C@@H](C)CC)[C@@H](C)CC [compound 2, D-Phe-Arg10-teixobactin] | – | 1 | 32 | 2 | –
4 | CC[C@H](C)[C@H](NC(=O)[C@@H](Cc1ccccc1)N(C)C)C(=O)N[C@@H](CO)C(=O)N[C@H](CCC(N)=O)C(=O)N[C@@H](C(=O)N[C@H](C(=O)N[C@@H](CO)C(=O)N[C@H]1C(=O)N[C@@H](C)C(=O)N[C@@H](CCCNC(=N)N)C(=O)N[C@@H]([C@@H](C)CC)C(=O)O[C@H]1C)[C@@H](C)CC)[C@@H](C)CC [compound 3, N-Me2-D-Phe-Arg10-teixobactin] | – | 2 | 128 | 16 | –
5 | CC[C@H](C)[C@H](NC(=O)[C@@H](Cc1ccccc1)NC)C(=O)N[C@@H](CO)C(=O)N[C@H](CCC(N)=O)C(=O)N[C@@H](C(=O)N[C@H](C(=O)N[C@@H](CO)C(=O)N[C@H]1C(=O)N[C@@H](C)C(=O)N[C@@H](CCCNC(=N)N)C(=O)N[C@@H]([C@@H](C)CC)C(=O)O[C@H]1C)[C@@H](C)CC)[C@@H](C)CC [compound 1, N-Me-D-Phe-Arg10-teixobactin] | – | 0.5 | 64 | 2 | Minimum Inhibitory Concentration (MIC) P. aerug ATCC 27853 [9]: NI ^1
6 | N-Dec-D-Phe-Arg10-teixobactin [compound 8] | poor solubility in water | – | – | – | solubility in solvent systems compatible with reverse-phase chromatography [1]: not possible to dissolve
7 | CCCCCCCCCCN[C@H](Cc1ccccc1)C(=O)N[C@H](C(=O)N[C@@H](CO)C(=O)N[C@H](CCC(N)=O)C(=O)N[C@@H](C(=O)N[C@H](C(=O)N[C@@H](CO)C(=O)N[C@H]1C(=O)N[C@@H](C)C(=O)N[C@@H](CCCNC(=N)N)C(=O)N[C@@H]([C@@H](C)CC)C(=O)O[C@H]1C)[C@@H](C)CC)[C@@H](C)CC)[C@@H](C)CC [compound 5, N-De-D-Phe-Arg10-teixobactin] | poor solubility in water | 128 | – | – | –
8 | CC[C@H](C)[C@H](NC(=O)[C@@H](Cc1ccccc1)N=C(N(C)C)N(C)C)C(=O)N[C@@H](CO)C(=O)N[C@H](CCC(N)=O)C(=O)N[C@@H](C(=O)N[C@H](C(=O)N[C@@H](CO)C(=O)N[C@H]1C(=O)N[C@@H](C)C(=O)N[C@@H](CCCNC(=N)N)C(=O)N[C@@H]([C@@H](C)CC)C(=O)O[C@H]1C)[C@@H](C)CC)[C@@H](C)CC [compound 10, N-Tmg-D-Phe-Arg10-teixobactin] | – | 64 | – | 256 | –
